# “Also recorded” adds a separate entry of the source. Read-outs that look alike come from different tables or passages of the source.
# Columns and labels:
# [1] = system: estrogen binding protein (EBP), 84 kD heterodimer, mouse fetal liver; test: Competition for / modulation of ^3H-estradiol-17β binding to EBP (charcoal assay); conditions: for inhibition of / influence on ^3H-estradiol-17β binding to EBP: competitor concentration not stated
# Description: (§1) In brief, the procedure is as follows. […] Simultaneously tubes in duplicate without any added protein sample were set up as control. At the end of the incubation the tubes were put in an ice bath for 15 minutes to cool to the ice bath temperature. 0.5 ml of charcoal solution (0.05% heat activated charcoal plus 0.05% bovine serum albumin in tris buffer) was added, mixed and incubated further for 10 minutes. The tubes were then centrifuged at 2500 rpm for 15 minutes at 4°C to pellet the charcoal. 0.5 ml from each tube was carefully withdrawn without disturbing the charcoal pellet at the bottom of the tube and the radioactivity was measured following mixing with the scintillation cocktail. The net protein bound radioactivity was calculated after deducting the background counts based on the tubes without any added protein.
# type II ER = conditions: literature (40-41,43); cited from earlier work
# [2] = system: estrogen binding protein (EBP), 84 kD heterodimer, mouse fetal liver
# Description: as §1
# [3] = system: estrogen binding protein (EBP), 84 kD heterodimer, mouse fetal liver; test: Sucrose density gradient centrifugation of EBP incubated with ^3H-estradiol-17β and competitor; conditions: ^3H-estradiol-17β 0.85 pmol + dimethylbenzanthracene 0.42 nmol or 1.2 nmol; Fig. 17
# Excerpt: In the light of the above information attempts were made to analyse whether some of the known pollutants and carcinogens (1-OH, 3-OH, 8-OH, 10-OH benzo(a)pyrene, […]) compete in vitro with ^3H-estradiol-17β for binding site on EBP. […] Since benzo(a)pyrene is a known carcinogen it will be important to determine whether there is a structural relationship between estradiol-17β and the various hydroxy benzo(a)pyrenes. […] It is well known that DMBA is a potent carcinogen and as such it has been extensively used to induce estrogen dependent mammary and endometrial cancers in animals. […] However, this agent is still utilized to coat common plastics of daily use. […] Establishment of a correlationship between the in vitro and in vivo potency of such compounds will provide a rapid in vitro screening assay. Most importantly, such information for the first time will delineate a definitive role for an estrogen binder such as EBP in carcinogenesis and may also enable to explain why compounds such as DMBA induce tumors in estrogen responsive tissues as well as why the tumors are estrogen dependent.
compound,measurement,setting,value
CC/C(=C(\c1ccccc1)c1ccc(OCCN(C)C)cc1)c1ccccc1 [Tamoxifen],inhibition of / influence on ^3H-estradiol-17β binding to EBP,[1],no significant inhibitory effect
C[C@]12CC[C@@H]3c4ccc(O)cc4CC[C@H]3[C@@H]1C[C@@H](O)[C@@H]2O [estriol],relative binding activities of the competing estrogens,"[1]; calculated at the 50% reduction level, compared to non-labelled estradiol-17β competing potency",37%
same,inhibition of / influence on ^3H-estradiol-17β binding to EBP,[1],significantly inhibited
"O[C@H](CS)[C@H](O)CS (racemic) [DTT, dithiotreitol]",sensitivity of type II ER estrogen binding to DTT,type II ER,highly sensitive
CC/C(=C(\c1ccc(O)cc1)c1ccc(OCCN(C)C)cc1)c1ccccc1 [4-hydroxytamoxifen],inhibition of / influence on ^3H-estradiol-17β binding to EBP,[1],no significant inhibitory effect
NCCc1ccc(O)c(O)c1 [dopamine],influence on ^3H-estradiol-17β binding to EBP,[1]; both at low and high molarity,did not significantly influence
same,inhibition of / influence on ^3H-estradiol-17β binding to EBP,[1],did not influence
same,binding of the radiolabelled compound to EBP,[2]; radiolabelled ligand,no binding
CC/C(=C(/CC)c1ccc(O)cc1)c1ccc(O)cc1 [diethylstilbestrol],binding of the radiolabelled compound to EBP,[2],"does not bind; also recorded: most estrogens no Des binding no competition (prog, androgen, corticoids)"
"Cc1c2ccccc2c(C)c2c1ccc1ccccc12 [DMBA, 7,12-dimethylbenzanthracene]",inhibition of ^3H-estradiol-17β binding (sucrose gradient centrifugation),[3],inhibition
C[C@]12CC[C@@H]3c4ccc(O)cc4CC[C@H]3[C@@H]1CC[C@H]2O [estradiol-17α],inhibition of ^3H-estradiol-17β binding to EBP,[1]; competitor at 300-fold the concentration of the radiolabelled estrogen,no inhibitory effect

# Reference: patent EP0939084A1, “An estrogen binding proteinaceous substance, its possible role in estrogen action, and potential use” (Rao, Ramanath B., priority 1998, dated 1999)
